Measured values published in patent US6897288B1, “Mage-A12 antigenic peptides and uses thereof” (Ludwig Institute for Cancer Research, priority 1999, dated 2005).

System: autologous cell line LB-831-EBV pulsed with MAGE-A12 peptides, lysis by CTL 501D/19 (HLA-Cw*07 restricted)
Test: Chromium release cytotoxicity assay with peptide-pulsed cells
Assay type: cell-based, human
Details: effector to target ratio of 10, chromium release after 4 hours; for sensitization of peptide-pulsed LB-831-EBV cells to lysis by CTL 501D/19 (recognition by CTL): chromium-labeled cells pulsed 30 min with peptide
Description: The lytic activity of CTLs was tested in a chromium release assay as described previously (Boon et al., J. Exp. Med. 152:1184-1193, 1980). Briefly, 1,000 chromium-labeled cells in 100 μl were incubated in 96-well microplates with an equal volume of CTL at different effector to target ratios. Chromium release was measured after 4 h of incubation. For the peptide assay, labeled LB831-EBV cells were incubated for 30 min at 37° C. with various concentrations of peptides. CTL were then added and chromium release was measured as described above.
Cells transfected with fragments of 540 bp or more were capable of stimulating CTL 501D/19, whereas those transfected with shorter fragments were not. […] In the amino-acid sequence corresponding to nucleotides 525-540, two overlapping nonapeptides, EVVRIGHLY (codons 168-176 of MAGE-A12; SEQ ID NO:3) and VRIGHLYIL (codons 170-178 of MAGE-A12; SEQ ID NO:4) were found which conformed to the HLA-Cw7 peptide binding motif, i.e. tyrosine or leucine at the C terminus (Rammensee et al., Immunogenetics. 41:178, 1995). Decapeptide […] (SEQ ID NO:5), nonapeptide VRIGHLYIL (SEQ ID NO:4) and octapeptide RIGHLYIL (SEQ ID NO:6) sensitized the autologous lymphoblastoid cell line LB-83]-EBV to lysis by CTL 501D/19 (FIG. 4). Autologous cell line LB-831-EBV was loaded with MAGE-A12 peptides VRIGHLYIL (SEQ ID NO:4), VVRIGHLYIL (SEQ ID NO:5), or RIGHLYIL (SEQ ID NO:6), and contacted with CTL 501D/19. Chromium-labeled cells were pulsed for 30 min with the indicated concentrations of peptides (VRIGHLYIL (SEQ ID NO:4) or […] (SEQ ID NO:6)). CTL 501D/19 was added at an effector to target ratio of 10. Chromium release was measured after 4 hours.

Sequence | sensitization of peptide-pulsed LB-831-EBV cells to lysis by CTL 501D/19 (recognition by CTL) | EC50 (LB-831-EBV cells pulsed 30 min, read-out: peptide concentration giving half-maximal lysis by CTL 501D/19)
EVVRIGHLY (listed as Homo sapiens) [SEQ ID NO:3, nonapeptide, codons 168-176 of MAGE-A12] | not recognized | 
RIGHLYIL [SEQ ID NO:6] | sensitized | 
VRIGHLYIL [SEQ ID NO:4] | sensitized | 100 pM
VVRIGHLYIL [SEQ ID NO:5] | sensitized | 
